Assay results taken from the CheMixHub viscosity set.

Test: xn = mol fraction of the nth substance listed

CC[NH+](C)CC.[Br-] + O
viscosity [mPa·s], 100 kPa
Settings	298.15 K	303.15 K	308.15 K	313.15 K	318.15 K	323.15 K
x1 = 0.016	1.149	1.026	0.925	0.841	0.771	0.712
x1 = 0.0229	1.243	1.107	0.996	0.903	0.825	0.759
x1 = 0.0355	1.458	1.295	1.162	1.051	0.955	0.873
x1 = 0.0793	2.422	2.124	1.882	1.681	1.513	1.368
x1 = 0.0986	3.011	2.633	2.318	2.061	1.843	1.658
x1 = 0.1267	4.05	3.504	3.07	2.707	2.389	2.142
x1 = 0.1508	5.154	4.438	3.862	3.379	2.988	2.658
x1 = 0.1806	6.655	5.646	4.861	4.22	3.695	3.267
x1 = 0.2148	9.109	7.787	6.643	5.74	5.002	4.39
x1 = 0.2422	11.37	9.636	8.251	7.129	6.196	5.432
x1 = 0.2866	15.38	12.8	10.79	9.194	7.919	6.897
x1 = 0.3332	21.46	17.54	14.61	12.29	10.49	9.032
x1 = 0.4014	33.72	26.93	21.98	18.17	15.2	12.89

CC(C)OCCO + CCCO
298.15 K, 101.33 kPa
Settings	viscosity [mPa·s]
x1 = 0.0192	1.947
x1 = 0.0257	1.944
x1 = 0.045	1.941
x1 = 0.0645	1.938
x1 = 0.081	1.933
x1 = 0.1072	1.93
x1 = 0.1486	1.927
x1 = 0.1863	1.923
x1 = 0.2438	1.919
x1 = 0.2942	1.914
x1 = 0.3545	1.916
x1 = 0.3782	1.921
x1 = 0.4251	1.929
x1 = 0.4749	1.938
x1 = 0.5261	1.949
x1 = 0.5659	1.958
x1 = 0.6184	1.971
x1 = 0.6608	1.983
x1 = 0.7	1.996
x1 = 0.7606	2.015
x1 = 0.8023	2.025
x1 = 0.8623	2.042
x1 = 0.8845	2.052
x1 = 0.9485	2.064

COC(=O)c1ccccc1 + C1CCOC1
viscosity [mPa·s], 100 kPa
Settings	x1 = 0.0689	x1 = 0.1417	x1 = 0.2202	x1 = 0.303	x1 = 0.3932	x1 = 0.493	x1 = 0.6018	x1 = 0.7225	x1 = 0.8535
303.15 K	0.496	0.562	0.638	0.727	0.829	0.951	1.096	1.262	1.446
308.15 K	0.484	0.546	0.616	0.699	0.79	0.904	1.032	1.181	1.343
313.15 K	0.443	0.505	0.567	0.641	0.729	0.83	0.943	1.078	1.22

[Cl-].[Cl-].[Cl-].[Cl-].[Ti+4] + [Cl-].[Cl-].[Cl-].[Cl-].[Sn+4]
viscosity [mPa·s], 101 kPa
Settings	x2 = 0.2	x2 = 0.4	x2 = 0.6	x2 = 0.8
293.15 K	0.847	0.87	0.895	0.922
313.15 K	0.702	0.703	0.705	0.709

CNC=O + CC(=O)c1ccccc1
viscosity [mPa·s], 101 kPa
Settings	x1 = 0.0867	x1 = 0.176	x1 = 0.268	x1 = 0.3629	x1 = 0.4607	x1 = 0.5617	x1 = 0.6659	x1 = 0.7736	x1 = 0.8849
303.15 K	1.522	1.532	1.541	1.549	1.556	1.564	1.571	1.578	1.583
308.15 K	1.423	1.43	1.436	1.442	1.447	1.452	1.456	1.46	1.462
313.15 K	1.279	1.289	1.299	1.307	1.316	1.325	1.333	1.34	1.347
318.15 K	1.133	1.148	1.162	1.176	1.19	1.204	1.218	1.231	1.243

CCCCCCCCN(CCCCCCCC)CCCCCCCC + CCCCCCCCO
Settings	viscosity [mPa·s]
298 K, 101.3 kPa, x1 = 0.00811	7.341

CC(C)OCCO + CCCNCCC
viscosity [mPa·s], 101.33 kPa
Settings	298.15 K	308.15 K	318.15 K
x1 = 0.0484	0.544	0.476	0.41
x1 = 0.0855	0.581	0.505	0.435
x1 = 0.1225	0.625	0.534	0.458
x1 = 0.1899	0.704	0.599	0.502
x1 = 0.2514	0.798	0.671	0.555
x1 = 0.3234	0.918	0.76	0.617
x1 = 0.3933	1.046	0.855	0.685
x1 = 0.4465	1.154	0.941	0.747
x1 = 0.482	1.237	1.001	0.785
x1 = 0.5205	1.313	1.058	0.83
x1 = 0.6318	1.571	1.242	0.959
x1 = 0.73	1.776	1.381	1.076
x1 = 0.8358	1.959	1.516	1.187
x1 = 0.919	2.057	1.595	1.268
x1 = 0.9596	2.087	1.618	1.292

CCCCCCCCN(CCCCCCCC)CCCCCCCC + CC(CC(C)(C)C)CC(C)(C)C
298.15 K, 101.33 kPa
Settings	viscosity [mPa·s]
x1 = 0.052	1.424
x1 = 0.11	1.675
x1 = 0.173	1.982
x1 = 0.527	4.26

OC[C@@H](O)[C@@H](O)[C@H](O)[C@@H](O)CO + CC(=O)[O-].CC[n+]1ccn(C)c1
Settings	viscosity [mPa·s]
313.15 K, 100 kPa, x1 = 0.5	572.5

CC(C)CC(C)C + CCCCCCCCCCCC
101 kPa, x1 = 0.5
Settings	viscosity [mPa·s]
298 K	0.7489
318 K	0.5809

CCCCOCCO + CCCCCCCCO
viscosity [mPa·s], 101 kPa
Settings	298.15 K	303.15 K	308.15 K
x1 = 0.6004	3.885	–	2.965
x1 = 0.8027	–	2.825	2.545

NCC(=O)NCC(=O)NCC(=O)NCC(=O)O + O
viscosity [mPa·s], 101 kPa
Settings	x1 = 9.96e-05	x1 = 0.000119	x1 = 0.0002046	x1 = 0.0002554	x1 = 0.0003681	x1 = 0.0004221	x1 = 0.0005133
298.15 K	0.893	0.894	0.8971	0.8987	0.9022	0.9037	0.9045
308.15 K	0.7219	0.7227	0.7246	0.7261	0.7289	0.7304	0.7337
318.15 K	0.5985	0.5992	0.6011	0.6019	0.6045	0.606	0.6079

CCCCOCCO + Cc1ccccc1
viscosity [mPa·s], 101 kPa
Settings	298.15 K	308.15 K
x1 = 0.055	0.593	0.531
x1 = 0.1509	0.678	0.597
x1 = 0.2513	0.784	0.679
x1 = 0.3489	0.909	0.775
x1 = 0.4511	1.066	0.896
x1 = 0.5015	1.156	0.965
x1 = 0.5525	1.257	1.042
x1 = 0.6512	1.483	1.215
x1 = 0.7494	1.759	1.425
x1 = 0.8498	2.105	1.689
x1 = 0.9541	2.551	2.03

O=C(OCc1ccccc1)c1ccccc1 + Cc1ccccc1
298.15 K, 101 kPa
Settings	viscosity [mPa·s]
x1 = 0.2369	1.183
x1 = 0.4262	2.015
x1 = 0.6505	3.614
x1 = 0.789	5.08
x1 = 0.9002	6.66

O=C(Cc1ccccc1)Cc1ccccc1 + CCCCCOC(C)=O
298.15 K, 101 kPa
Settings	viscosity [mPa·s]
x1 = 0.0269	0.8322
x1 = 0.0305	0.8358

CC(C)c1cc(C(C)C)cc(C(C)C)c1 + CCCCCCCCCCCCCCCC
viscosity [mPa·s], 102 kPa
Settings	x1 = 0.1209	x1 = 0.1996	x1 = 0.3001	x1 = 0.3994	x1 = 0.5003	x1 = 0.6004	x1 = 0.6998	x1 = 0.7999	x1 = 0.8993
293.15 K	3.41	3.37	3.35	3.34	3.37	3.43	3.53	3.67	3.86
303.15 K	2.7	2.67	2.64	2.63	2.64	2.66	2.71	2.79	2.9
313.15 K	2.19	2.16	2.13	2.12	2.12	2.13	2.15	2.19	2.26
323.15 K	1.81	1.79	1.76	1.75	1.74	1.74	1.75	1.77	1.81

c1ccc2c(c1)CCCC2 + CCCCCCCC
viscosity [mPa·s], 101 kPa
Settings	x2 = 0.0997	x2 = 0.2011	x2 = 0.3013	x2 = 0.3997	x2 = 0.5003	x2 = 0.5995	x2 = 0.7001	x2 = 0.8014	x2 = 0.8955
293.15 K	1.831	1.527	1.303	1.143	0.976	0.85	0.747	0.673	0.612
298.15 K	1.675	1.405	1.207	1.063	0.918	0.811	0.702	0.635	0.58
303.15 K	1.533	1.294	1.118	0.989	0.857	0.762	0.662	0.599	0.55
313.15 K	1.308	1.117	0.971	0.866	0.757	0.675	0.592	0.539	0.496

CC(C)OCCO + CCCCCO
298.15 K, 101.33 kPa
Settings	viscosity [mPa·s]
x1 = 0.0159	3.466
x1 = 0.0312	3.405
x1 = 0.0461	3.354
x1 = 0.0653	3.292
x1 = 0.0867	3.234
x1 = 0.1097	3.16
x1 = 0.137	3.099
x1 = 0.1627	3.029
x1 = 0.1931	2.952
x1 = 0.2267	2.881
x1 = 0.2585	2.819
x1 = 0.2966	2.748
x1 = 0.3417	2.677
x1 = 0.3843	2.61
x1 = 0.4446	2.526
x1 = 0.4848	2.473
x1 = 0.4956	2.461
x1 = 0.5246	2.432
x1 = 0.5561	2.397
x1 = 0.6012	2.357
x1 = 0.6643	2.297
x1 = 0.7168	2.261
x1 = 0.7741	2.218
x1 = 0.8198	2.191
x1 = 0.8573	2.167
x1 = 0.8964	2.142
x1 = 0.9259	2.133
x1 = 0.9558	2.116
x1 = 0.9775	2.11

CCCCOCCO + CCc1ccccc1
viscosity [mPa·s], 101 kPa
Settings	298.15 K	308.15 K
x1 = 0.0546	0.678	0.568
x1 = 0.1505	0.769	0.643
x1 = 0.2513	0.877	0.732
x1 = 0.3501	1.003	0.835
x1 = 0.4528	1.161	0.961
x1 = 0.4982	1.24	1.025
x1 = 0.55	1.339	1.103
x1 = 0.6497	1.56	1.277
x1 = 0.7511	1.831	1.487
x1 = 0.8507	2.156	1.736
x1 = 0.9614	2.601	2.071

CC(C)OCCO + CC(C)O
298.15 K, 101.33 kPa
Settings	viscosity [mPa·s]
x1 = 0.0272	2.051
x1 = 0.0618	2.009
x1 = 0.0768	1.995
x1 = 0.092	1.986
x1 = 0.1373	1.959
x1 = 0.1766	1.941
x1 = 0.2006	1.929
x1 = 0.2467	1.914
x1 = 0.2976	1.9
x1 = 0.3502	1.899
x1 = 0.3949	1.902
x1 = 0.4259	1.903
x1 = 0.4507	1.908
x1 = 0.5015	1.918
x1 = 0.5529	1.93
x1 = 0.6181	1.948
x1 = 0.6764	1.971
x1 = 0.73	1.991
x1 = 0.7886	2.014
x1 = 0.8718	2.049
x1 = 0.9241	2.064
x1 = 0.9782	2.083
